Laboratory results from US12263171B2, “7-, 8-, and 10-substituted amino triazolo quinazoline derivatives as adenosine receptor antagonists, pharmaceutical compositions and their use” (Merck Sharp & Dohme LLC, priority 2018, dated 2025).

Legend:
[1] = target: human A2b adenosine receptor (Homo sapiens (Human), UniProt P29275); assay: A2b radioligand filtration binding assay (tritiated proprietary A2b antagonist, HEK293 membranes); conditions: for A2B binding % inh. @ 10000 nM: unstarred; for IC50: unstarred values: radioligand binding
human A2b adenosine receptor, sequence (P29275 whole entry): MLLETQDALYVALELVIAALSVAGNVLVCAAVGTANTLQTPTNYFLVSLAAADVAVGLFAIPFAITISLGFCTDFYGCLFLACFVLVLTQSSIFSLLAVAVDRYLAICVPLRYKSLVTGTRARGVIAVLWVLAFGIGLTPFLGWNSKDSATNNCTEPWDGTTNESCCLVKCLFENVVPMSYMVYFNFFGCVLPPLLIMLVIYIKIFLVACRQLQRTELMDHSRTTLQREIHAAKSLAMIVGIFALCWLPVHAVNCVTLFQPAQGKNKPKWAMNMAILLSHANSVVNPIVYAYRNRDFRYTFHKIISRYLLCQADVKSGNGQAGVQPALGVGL
Procedure: Measurement of A2b Binding Affinity
The reported affinity of the compounds of the invention for the human A2b adenosine receptor was determined experimentally using a radioligand filtration binding assay. This assay measures the amount of binding of a tritiated proprietary A2b receptor antagonist, in the presence and absence of a compound of the invention, to membranes made from HEK293 cells recombinantly expressing the human A2b adenosine receptor (Perkin Elmer, Cat. No. ES-013-C).
The filter plate was incubated for at least 1 hour at 55° C. and allowed to dry. The bottom of the filter plate was then sealed with backing tape. […] The plates were then incubated for at least 20 minutes, and then the amount of radioactivity remaining in each well was determined using a TopCount® (Perkin Elmer) scintillation counter. After normalization to total and non-specific binding, the percent effect at each compound concentration was calculated. The plot of percent effect versus the log of compound concentration was analyzed electronically using a 4-parameter logistic fit based on the Levenberg-Marquardt algorithm to generate IC50 values.

[2] = target: human A2a adenosine receptor (Homo sapiens (Human), UniProt P29274); assay: A2a receptor affinity radioligand binding assay ([3H] SCH58261, membranes from HEK293 or CHO cells); conditions: for IC50: unstarred values: radioligand binding
human A2a adenosine receptor, sequence (P29274 whole entry): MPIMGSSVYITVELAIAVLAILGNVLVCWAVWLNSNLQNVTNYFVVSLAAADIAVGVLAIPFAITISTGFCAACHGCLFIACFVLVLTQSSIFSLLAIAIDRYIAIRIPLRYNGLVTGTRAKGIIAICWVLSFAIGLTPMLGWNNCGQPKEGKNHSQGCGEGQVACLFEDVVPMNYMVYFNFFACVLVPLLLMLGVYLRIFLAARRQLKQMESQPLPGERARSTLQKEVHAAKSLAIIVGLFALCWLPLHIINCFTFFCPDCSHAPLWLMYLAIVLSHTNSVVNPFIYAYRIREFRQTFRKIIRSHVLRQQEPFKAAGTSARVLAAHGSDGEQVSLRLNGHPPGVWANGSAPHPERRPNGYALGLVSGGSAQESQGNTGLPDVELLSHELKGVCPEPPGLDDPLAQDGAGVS
Procedure: The A2a receptor affinity binding assay measured the amount of binding of a tritiated ligand with high affinity for the A2a adenosine receptor to membranes made from HEK293 or CHO cells recombinantly expressing the human A2a adenosine receptor, in the presence of varying concentrations of a compound of the invention.
Measurement of A2a Binding Affinity Using Radioligand Binding
148 μL, (5 μg/mL) membranes (Perkin Elmer, Cat. No. RBHA2aM4001A) and 2 μL compounds of the invention to be tested (test compound) were transferred to individual wells of a 96-well polypropylene assay plate and incubated for 15 to 30 minutes at room temperature. [^3H] SCH58261 ((7-(2-phenylethyl)-5-amino-2-(2-furyl)-pyrazolo-[4,3-e]-1,2,4-triazolo[1,5-c]pyrimidine)) was diluted in assay buffer (50 mM Tris pH 7.4, 10 mM MgCl2, 0.005% Tween20) to a concentration of 4 nM and 50 μL transferred to each well of the assay plate. […] The assay plate was incubated at room temperature for 60 minutes with agitation. […] Filtering was achieved by aspirating the contents of the assay plate for 5 seconds, then washing and aspirating the contents three times with ice-cooled wash buffer (50 mM Tris-HCl pH 7.4, 150 mM NaCl) and allowing the vacuum manifold to dry the plate for 30 seconds. The filter plate was incubated for at least 1 hour at 55° C. and allowed to dry. The bottom of the filter plate was sealed with backing tape. 40 μL. […] The plate was incubated for at least 20 minutes, and then the amount of radioactivity remaining in each well was determined using a TopCown® (Perkin Elmer) scintillation counter. After normalization to total and non-specific binding, the percent effect at each compound concentration was calculated. The plot of percent effect versus the log of compound concentration was analyzed electronically using a 4-parameter logistic fit based on the Levenberg-Marquardt algorithm to generate IC50 values.

SMILES | A2B binding % inh. @ 10000 nM [1] [% inh. @ 10000 nM] | IC50 [2] [µM] | IC50 [1] [µM] | A2A binding % inh. @ 10000 nM ([2]; @ 10000 nM, unstarred) [% inh. @ 10000 nM]
Cn1cc(N2CCCC(c3nc4c5c(C(F)(F)F)cccc5nc(N)n4n3)C2)cn1 (single isomer, unassigned) [Example 170, (R or S)-2-(1-(1-methyl-1H-pyrazol-4-yl)piperidin-3-yl)-10-(trifluoromethyl)-[1,2,4]triazolo[1,5-c]quinazolin-5-amine] | 28 | 0.205 | – | –
COc1cccc2c1nc(N)n1nc([C@@H]3CCCN(c4ncn(CC(F)(F)F)n4)C3)nc21 [Example 69, (R)-7-methoxy-2-(1-(1-(2,2,2-trifluoroethyl)-1H-1,2,4-triazol-3-yl)piperidin-3-yl)-[1,2,4]triazolo[1,5-c]quinazolin-5-amine] | – | 0.0006 | 0.144 | –
COc1ccc2c(c1)nc(N)n1nc([C@@H]3CCCN(c4cnn(CC5(O)CCC5)c4)C3)nc21 [Example 176] | – | 0.0007 | 0.189 | –
COc1cccc2c1nc(N)n1nc([C@@H]3CCCN(c4cn(C5CCOCC5)nc4C)C3)nc21 [Example 46, (R)-7-methoxy-2-(1-(3-methyl-1-(tetrahydro-2H-pyran-4-yl)-1H-pyrazol-4-yl)piperidin-3-yl)-[1,2,4]triazolo[1,5-c]quinazolin-5-amine] | – | 0.0004 | 0.404 | –
COc1cccc2c1nc(N)n1nc([C@@H]3CCCN(c4cc(C(F)(F)F)c(=O)n(C)c4)C3)nc21 [Example 99, (R)-5-(3-(5-amino-7-methoxy-[1,2,4]triazolo[1,5-c]quinazolin-2-yl)piperidin-1-yl)-1-methyl-3-(trifluoromethyl)pyridin-2(1H)-one] | – | 0.0006 | 0.0984 | –
COc1cccc2c1nc(N)n1nc([C@@H]3CCCN(c4cnn(C5CCS(=O)(=O)CC5)c4)C3)nc21 [Example 122, (R)-4-(4-(3-(5-amino-7-methoxy-[1,2,4]triazolo[1,5-c]quinazolin-2-yl)piperidin-1-yl)-1H-pyrazol-1-yl)tetrahydro-2H-thiopyran 1,1-dioxide] | – | 0.0001 | 0.0584 | –
C[C@H]1CC[C@@H](c2nc3c4ccc(C#N)cc4nc(N)n3n2)CN1c1cnn(CC(C)(C)O)c1 [Example 202, 5-amino-2-((3R,6S)-1-(1-(2-hydroxy-2-methylpropyl)-1H-pyrazol-4-yl)-6-methylpiperidin-3-yl)-[1,2,4]triazolo[1,5-c]quinazoline-8-carbonitrile] | – | 0.0042 | 0.211 | –
Cn1cc(N2CCCC(c3nc4c5cccc(O)c5nc(N)n4n3)C2)cn1 (single isomer, unassigned) [Example 165, (R or S)-5-amino-2-(1-(1-methyl-1H-pyrazol-4-yl)piperidin-3-yl)-[1,2,4]triazolo[1,5-c]quinazolin-7-ol] | 10 | – | – | 19
COc1cccc2c1nc(N)n1nc([C@@H]3CCCN(c4cncc(C(F)(F)F)n4)C3)nc21 [Example 104, (R)-7-methoxy-2-(1-(6-(trifluoromethyl)pyrazin-2-yl)piperidin-3-yl)-[1,2,4]triazolo[1,5-c]quinazolin-5-amine] | – | 0.0001 | 3.33 | –
COc1cccc2c1nc(N)n1nc([C@@H]3CCCN(c4cnc(C5CC5)cn4)C3)nc21 [Example 105, (R)-2-(1-(5-cyclopropylpyrazin-2-yl)piperidin-3-yl)-7-methoxy-[1,2,4]triazolo[1,5-c]quinazolin-5-amine] | – | 0.0007 | 0.165 | –
COc1cccc2c1nc(N)n1nc([C@@H]3CCCN(c4cnn(CC(C)(C)O)c4C)C3)nc21 [Example 33, (R)-1-(4-(3-(5-amino-7-methoxy-[1,2,4]triazolo[1,5-c]quinazolin-2-yl)piperidin-1-yl)-5-methyl-1H-pyrazol-1-yl)-2-methylpropan-2-ol] | – | 0.0001 | 0.321 | –
COc1cccc2c1nc(N)n1nc([C@@H]3CCCN(c4cnn(CC5(O)CCC5)c4)C3)nc21 [Example 23, (R)-1-((4-(3-(5-amino-7-methoxy-[1,2,4]-triazolo[1,5-c]quinazolin-2-yl)piperidin-1-yl)-1H-pyrazol-1-yl)methyl)cyclobutan-1-ol] | – | 0.001 | 0.0642 | –
COc1cccc2c1nc(N)n1nc(C3CC(F)CN(c4cnn(CC5(O)CCC5)c4)C3)nc21 (stereo not drawn) [Example 150, 1-((4-(3-(5-amino-7-methoxy-[1,2,4]triazolo[1,5-c]quinazolin-2-yl)-5-fluoropiperidin-1-yl)-1H-pyrazol-1-yl)methyl)cyclobutan-1-ol] | 74 | 0.0805 | – | –
Cn1cc(N2CCCC(c3nc4c5ccc(C(F)(F)F)cc5nc(N)n4n3)C2)cn1 (single isomer, unassigned) [Example 174, (R or S)-2-(1-(1-methyl-1H-pyrazol-4-yl)piperidin-3-yl)-8-(trifluoromethyl)-[1,2,4]triazolo[1,5-c]quinazolin-5-amine] | – | 0.0443 | 0.48 | –
COc1cccc2c1nc(N)n1nc(C3CCC[C@@](O)(c4cnn(C)c4)C3)nc21 (mixture of isomers) [Example 134B] | – | 0.001 | 0.0767 | –
COc1cccc2c1nc(N)n1nc(C3CCCN(c4cnn(C)c4)[C@H]3C)nc21 (stereo partly drawn) [Example 128A] | 18 | 0.862 | – | –
COc1cccc2c1nc(N)n1nc([C@@H]3CCCN(c4cnn(C(C)(C)C(=O)NC5CCC5)c4)C3)nc21 [Example 37, (R)-2-(4-(3-(5-amino-7-methoxy-[1,2,4]triazolo[1,5-c]quinazolin-2-yl)piperidin-1-yl)-1H-pyrazol-1-yl)-N-cyclobutyl-2-methylpropanamide] | – | 0.0015 | 0.0107 | –
COc1cccc2c1nc(N)n1nc([C@@H]3CCCN(c4cnccn4)C3)nc21 [Example 102, (R)-7-methoxy-2-(1-(pyrazin-2-yl)piperidin-3-yl)-[1,2,4]triazolo[1,5-c]quinazolin-5-amine] | – | 0.001 | 0.151 | –
COc1ccc2c(c1)nc(N)n1nc([C@@H]3CCCN(c4cnn(CC5(CF)COC5)c4)C3)nc21 [Example 183, (R)-2-(1-(1-((3-(fluoromethyl)oxetan-3-yl)methyl)-1H-pyrazol-4-yl)piperidin-3-yl)-8-methoxy-[1,2,4]triazolo[1,5-c]quinazolin-5-amine] | – | 0.157 | 4.07 | –

More lines, now with the values ahead:

A2B binding % inh. @ 10000 nM [1] [% inh. @ 10000 nM] | IC50 [2] [µM] | IC50 [1] [µM] | A2A binding % inh. @ 10000 nM ([2]; @ 10000 nM, unstarred) [% inh. @ 10000 nM] | SMILES
– | 0.0004 | 1.37 | – | COc1ccc2c(c1)nc(N)n1nc([C@@H]3C[C@H](F)CN(c4cn(CC(C)(C)O)nc4C)C3)nc21 [Example 197B, 1-(4-((3R,5S)-3-(5-amino-8-methoxy-[1,2,4]triazolo[1,5-c]quinazolin-2-yl)-5-fluoropiperidin-1-yl)-3-methyl-1H-pyrazol-1-yl)-2-methylpropan-2-ol]
– | 0.0039 | 0.779 | – | COc1cccc2c1nc(N)n1nc([C@@H]3CC[C@H](C)N(c4cnn(C(C)C(C)(C)O)c4)C3)nc21 (single isomer, unassigned) [Example 147C]
– | 0.281 | 9.45 | – | COc1ccc2c(c1)nc(N)n1nc([C@H]3C[C@H](C)CN(c4cnn(CC(C)(C)O)c4)C3)nc21 [Example 195C]
– | 0.0103 | 3.52 | – | COc1cccc2c1nc(N)n1nc([C@@H]3CCC4CCC3N4c3cnn(C)c3)nc21 (mixture of isomers) [Example 130B]
– | 0.0012 | 0.157 | – | COc1cccc2c1nc(N)n1nc([C@H]3CCC[C@@H](c4cnn(C)c4)C3)nc21 (single isomer, unassigned) [Example 136C]
